Test results published in paper PMC4446623, “Tackling the Cytotoxic Effect of a Marine Polycyclic Quinone-Type Metabolite: Halenaquinone Induces Molt 4 Cells Apoptosis via Oxidative Stress Combined with the Inhibition of HDAC and Topoisomerase Activities” (Marine Drugs, 2015).
pIC50: −log10 of the molar value.

Tests used:
topo I = molecular target: T1, topo I (Homo sapiens, UniProt P11387); assay: cell-free relaxation assay of supercoiled pHOT1 plasmid DNA with purified human topo I, agarose gel; type: biochemical
T1 construct: gene TOP1
T1 sequence (P11387 2-765): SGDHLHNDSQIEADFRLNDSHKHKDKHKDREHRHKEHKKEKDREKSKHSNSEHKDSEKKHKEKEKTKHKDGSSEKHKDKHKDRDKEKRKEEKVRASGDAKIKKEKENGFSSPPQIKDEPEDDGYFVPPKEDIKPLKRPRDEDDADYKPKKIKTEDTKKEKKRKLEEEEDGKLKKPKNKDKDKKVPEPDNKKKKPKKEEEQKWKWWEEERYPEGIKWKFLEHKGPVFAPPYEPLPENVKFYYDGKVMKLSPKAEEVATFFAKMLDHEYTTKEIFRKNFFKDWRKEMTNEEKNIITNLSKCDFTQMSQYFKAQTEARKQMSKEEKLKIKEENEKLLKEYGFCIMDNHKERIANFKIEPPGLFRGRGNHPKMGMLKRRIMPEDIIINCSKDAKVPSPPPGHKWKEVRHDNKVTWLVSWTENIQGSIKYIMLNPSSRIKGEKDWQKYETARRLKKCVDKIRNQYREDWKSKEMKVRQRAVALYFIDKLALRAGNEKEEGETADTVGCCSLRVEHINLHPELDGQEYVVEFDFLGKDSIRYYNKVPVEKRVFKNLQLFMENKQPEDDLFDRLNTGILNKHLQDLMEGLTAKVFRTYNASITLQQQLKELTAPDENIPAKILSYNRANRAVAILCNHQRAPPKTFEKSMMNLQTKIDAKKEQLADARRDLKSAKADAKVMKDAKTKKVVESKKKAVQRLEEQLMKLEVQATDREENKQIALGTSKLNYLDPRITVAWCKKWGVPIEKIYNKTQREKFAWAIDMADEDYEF

topo IIα = molecular target: T2, topo IIα (Homo sapiens, UniProt P11388); assay: cell-free relaxation assay of supercoiled pHOT1 plasmid DNA with purified human topo II, agarose gel; type: biochemical
T2 construct: gene TOP2A
T2 sequence (P11388 whole entry): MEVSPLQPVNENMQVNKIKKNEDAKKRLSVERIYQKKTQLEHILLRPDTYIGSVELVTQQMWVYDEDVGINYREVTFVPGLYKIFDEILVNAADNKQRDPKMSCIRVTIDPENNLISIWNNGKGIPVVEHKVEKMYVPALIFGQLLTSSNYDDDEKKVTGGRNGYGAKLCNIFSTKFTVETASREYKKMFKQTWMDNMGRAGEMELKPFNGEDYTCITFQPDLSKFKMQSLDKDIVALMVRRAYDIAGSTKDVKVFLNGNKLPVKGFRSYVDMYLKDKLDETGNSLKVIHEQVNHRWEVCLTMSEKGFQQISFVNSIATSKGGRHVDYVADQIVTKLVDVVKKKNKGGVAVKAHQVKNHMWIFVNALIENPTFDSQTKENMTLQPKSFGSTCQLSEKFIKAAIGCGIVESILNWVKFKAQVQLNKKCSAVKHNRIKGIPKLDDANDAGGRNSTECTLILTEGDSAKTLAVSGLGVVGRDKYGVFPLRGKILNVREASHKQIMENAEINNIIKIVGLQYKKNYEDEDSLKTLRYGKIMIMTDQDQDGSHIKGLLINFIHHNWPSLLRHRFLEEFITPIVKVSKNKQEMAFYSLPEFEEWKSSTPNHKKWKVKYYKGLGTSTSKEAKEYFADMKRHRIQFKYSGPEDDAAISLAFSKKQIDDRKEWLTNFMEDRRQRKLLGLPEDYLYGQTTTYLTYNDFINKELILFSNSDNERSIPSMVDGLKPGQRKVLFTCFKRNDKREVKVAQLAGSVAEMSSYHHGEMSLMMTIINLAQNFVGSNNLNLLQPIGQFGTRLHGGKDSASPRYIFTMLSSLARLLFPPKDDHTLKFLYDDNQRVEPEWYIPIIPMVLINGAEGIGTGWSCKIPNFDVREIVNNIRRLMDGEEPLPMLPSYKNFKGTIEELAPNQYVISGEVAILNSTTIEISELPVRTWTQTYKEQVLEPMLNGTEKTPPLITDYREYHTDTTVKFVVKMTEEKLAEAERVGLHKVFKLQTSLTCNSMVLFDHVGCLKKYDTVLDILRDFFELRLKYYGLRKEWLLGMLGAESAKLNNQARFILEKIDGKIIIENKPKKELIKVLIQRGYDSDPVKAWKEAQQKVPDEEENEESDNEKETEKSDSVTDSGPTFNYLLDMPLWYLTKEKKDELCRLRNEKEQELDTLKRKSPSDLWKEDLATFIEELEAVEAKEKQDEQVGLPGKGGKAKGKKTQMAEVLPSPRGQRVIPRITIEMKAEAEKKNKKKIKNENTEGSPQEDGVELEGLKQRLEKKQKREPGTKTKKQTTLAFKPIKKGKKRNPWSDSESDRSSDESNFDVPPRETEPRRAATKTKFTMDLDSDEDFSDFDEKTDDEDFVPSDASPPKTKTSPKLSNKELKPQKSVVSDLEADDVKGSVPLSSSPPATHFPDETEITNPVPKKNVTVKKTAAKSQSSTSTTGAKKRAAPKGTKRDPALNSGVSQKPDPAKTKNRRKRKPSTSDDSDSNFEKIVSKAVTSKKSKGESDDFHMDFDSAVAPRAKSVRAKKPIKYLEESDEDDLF

Structure (SMILES): C[C@@]12CCC(=O)c3coc(c31)C(=O)c1cc3c(cc12)C(=O)C=CC3=O [HQ, halenaquinone]
- pIC50 (topo I): 5.45
- pIC50 (topo IIα): 7.78
